We go through one compound from patent publication US11786517B2, “Methods of treatment using a JAK inhibitor compound” (THERAVANCE BIOPHARMA R&D IP, LLC, priority 2017, dated 2023).

The subject of data set [1] is IFNγ induced IP-10 protein levels. As to the kind of experiment: Pharmacodynamic assay: inhibition of IFNγ-induced IP-10 in rabbits. It counts as in vivo, New Zealand White rabbits. As to the method:
The ability of a single intravitreal administration of test compound to inhibit interferon-gamma (IFNγ) induced IP-10 protein levels was measured in rabbit vitreous and retina/choroid tissues.
Solution formulations at concentrations of 1 mg/mL and 4 mg/mL of compound 1 of Example 1 were prepared as in Assay 8. A suspension formulation was prepared by combining crystalline compound 1 of Example 1 with 0.5% hydroxypropyl methylcellulose (HPMC E5), 0.02% Tween 80, and 9 mg/mL sodium chloride in purified water to attain a target concentration of 20 mg/mL.
Male, New Zealand White rabbits (Liveon Biolabs, India) were used for the studies. Animals were acclimated after arrival at the research facilities (Jubilant Biosys Ltd., India). Each rabbit was given a total of two intravitreal (IVT) injections with a total dose volume of 50 μL per eye. The first IVT injection (45 μL per eye) delivered test compound or vehicle at a prescribed time point (i.e. 24 hours for the solution formulations or 1 week for the suspension formulation). The second IVT injection (5 μL per eye) delivered IFNγ (1 μg/eye; Stock solution 1 mg/mL; Kingfisher Biotech) or vehicle for the induction of IP-10. In brief, on the day of the injections, rabbits were anesthetized with an intramuscular injection of ketamine (35 mg/kg) and xylazine (5 mg/kg). Once deeply anesthetized, each eye was rinsed with sterile saline and IVT injections were performed using a 0.5 mL insulin syringe (50 units=0.5 mL) with a 31-gauge needle at the supra-nasal side of the both eyes by marking the position with a Braunstein fixed caliper (2¾″) 3.5 mm from the rectus muscle and 4 mm from the limbus.
Tissues were collected 24 hours after the second IVT injection with IFNγ. Vitreous humor (VH) and retina/choroid tissues (R/C) were collected and homogenized, and IP-10 protein levels were measured using a rabbit CXCL10 (IP-10) ELISA kit (Kingfisher Biotech). The percent inhibition of IFNγ-induced IP-10 was calculated in comparison to the vehicle/vehicle and vehicle/IFNγ groups.

Data set [2] in a line: Pharmacokinetics in plasma and lung in mouse. It counts as in vivo, BALB/c mice. The following applies: oral aspiration, 0.2 mg/mL, 50 uL. As to the method: Plasma and lung levels of the test compound and the ratio thereof was determined in the following manner. BALB/c mice from Charles River Laboratories were used in the assay. Test compounds were individually formulated in 20% propylene glycol in pH 4 citrate buffer at a concentration of 0.2 mg/mL and 50 uL of the dosing solution was introduced into the trachea of a mouse by oral aspiration. At various time points (typically 0.167, 2, 6, 24 hr) post dosing, blood samples were removed via cardiac puncture and intact lungs were excised from the mice. Blood samples were centrifuged (Eppendorf centrifuge, 5804R) for 4 minutes at approximately 12,000 rpm at 4° C. to collect plasma. Lungs were padded dry, weighed, and homogenized at a dilution of 1:3 in sterile water. Plasma and lung levels of test compound were determined by LC-MS analysis against analytical standards constructed into a standard curve in the test matrix. A lung to plasma ratio was determined as the ratio of the lung AUC in μg hr/g to the plasma AUC in μg hr/mL, where AUC is conventionally defined as the area under the curve of test compound concentration vs. time.

Data set [3] has as its system BALF eosinophils. As to the kind of experiment: Murine model of Alternaria alternata-induced eosinophilic inflammation of the lung. It counts as in vivo, C57 mice. Conditions: mouse, oropharyngeal aspiration 0.1-1.0 mg/mL, forty-eight hours after alternaria challenge. Here is the method:
Airway eosinophilia is a hallmark of human asthma. Alternaria alternata is a fungal aeroallergen that can exacerbate asthma in humans and induces eosinophilic inflammation in the lungs of mice (Havaux et al. Clin Exp Immunol. 2005, 139(2):179-88).
Seven- to nine-week old male C57 mice from Taconic were used in the study. On the day of study, animals were lightly anesthetized with isoflurane and administered either vehicle or test compound (0.1-1.0 mg/mL, 50 μL total volume over several breaths) via oropharyngeal aspiration. Animals were placed in lateral recumbency post dose and monitored for full recovery from anesthesia before being returned to their home cage. One hour later, animals were once again briefly anesthetized and challenged with either vehicle or alternaria extract (200 ug total extract delivered, 50 μL total volume) via oropharyngeal aspiration before being monitored for recovery from anesthesia and returned to their home cage. Forty-eight hours after alternaria administration, bronchoalveolar lavage fluid (BALF) was collected and eosinophils were counted in the BALF using the Advia 120 Hematology System (Siemens).
Activity in the model is evidenced by a decrease in the level of eosinophils present in the BALF of treated animals at forty-eight hours compared to the vehicle treated, alternaria challenged control animals. […]

Data set [4] relates to IL-13 induced pSTAT6 in lung tissue. Kind of data set: Murine model of IL-13 induced pSTAT6 induction in lung tissue. It counts as in vivo, balb/c mice. The following applies: mouse lung, 0.5 mg/mL 50 μL oral aspiration. Here is the method: Il-13 is an important cytokine underlying the pathophysiology of asthma (Kudlacz et al. Eur. J. Pharmacol, 2008, 582, 154-161). IL-13 binds to cell surface receptors activating members of the Janus family of kinases (JAK) which then phosphorylate STAT6 and subsequently activates further transcription pathways. In the described model, a dose of IL-13 was delivered locally into the lungs of mice to induce the phosphorylation of STAT6 (pSTAT6) which is then measured as the endpoint.
Adult balb/c mice from Harlan were used in the assay. On the day of study, animals were lightly anesthetized with isoflurane and administered either vehicle or test compound (0.5 mg/mL, 50 μL total volume over several breaths) via oral aspiration. Animals were placed in lateral recumbency post dose and monitored for full recovery from anesthesia before being returned to their home cage. Four hours later, animals were once again briefly anesthetized and challenged with either vehicle or IL-13 (0.03 μg total dose delivered, 50 μL total volume) via oral aspiration before being monitored for recovery from anesthesia and returned to their home cage. […] using an anti-pSTAT6 ELISA (rabbit mAb capture/coating antibody; mouse mAb detection/report antibody: anti-pSTAT6-pY641; secondary antibody: anti-mouse IgG-HRP) and analyzed for total drug concentration as described above in Assay 11. […]

As to `CCc1cc(O)c(F)cc1-c1ccc2c(-c3nc4c([nH]3)CCN(C3CCN(C)CC3)C4)n[nH]c2c1` [compound 1, 5-ethyl-2-fluoro-4-(3-(5-(1-methylpiperidin-4-yl)-4,5,6,7-tetrahydro-1H-imidazo[4,5-c]pyridin-2-yl)-1H-indazol-6-yl)phenol], the “inhibition of IFNγ-induced IP-10” value in data set [1] (rabbit retina/choroid tissue, 45 μg solution, 24 hour pre-treatment) is recorded as 86; in data set [1] (rabbit retina/choroid tissue, 180 μg solution, 24 hour pre-treatment), 100%; in data set [1] (rabbit retina/choroid tissue, crystalline suspension 20 mg/mL, 1 week pre-treatment), 100%; in data set [1] (rabbit vitreous humor, 45 μg solution, 24 hour pre-treatment), 70%; in data set [1] (rabbit vitreous humor, 180 μg solution, 24 hour pre-treatment) it was 91%; in data set [1] (rabbit vitreous humor, crystalline suspension 20 mg/mL, 1 week pre-treatment), 100%. Besides, the “exposure in lung relative to exposure in plasma (lung AUC to plasma AUC ratio)” value in data set [2] was “about 55 times”. In addition, the “inhibition of BALF eosinophil counts” value in data set [3] is given as “about 88%”. Besides, the “inhibition of STAT6 phosphorylation” value in data set [4] is recorded as “about 60%”.
